Test results reported in patent publication US10897906B2, “Fungicide for the treatment of fungal pathogens causing mycotoxins” (priority 2015, dated 2021).

Tests used:
[1] = Surface tension of aqueous bicarbonate spray solution (Kruss DSA30); format: physicochemical; details: aqueous solutions at typical in-use concentrations (2-5% active ingredient)
Method: (§1) In this application surface tension and contact angle were measured using a Kruss DSA30 system, […] was measured using a pendant drop technique with analysis carried out after application of the Laplace-Young equation, […] was measured following application of a droplet on to an artificial hydrophobic (Para-film) surface. The particle sizes of the crystals of the bicarbonate salt were determined by microscopy following the application of Motic Advanced Imaging Software.

[2] = Contact angle of aqueous bicarbonate spray solution (Kruss DSA30, hydrophobic Para-film surface); format: physicochemical; details: aqueous solutions at typical in-use concentrations (2-5% active ingredient)
Method: as §1

## O=C([O-])O.[K+] [potassium bicarbonate]
[1]
  Surface tension compared with water: virtually identical to that achieved with water alone
[2]
  Contact angle with the plant tissues compared with water: virtually identical to that achieved with water alone
